Test results as given in PubChem BioAssay (NCI).
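A five-concentration, 48-hour dose response in 96-well plates underlies each endpoint, interpolated linearly between surrounding concentrations. At the TGI there is no net growth.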

Assays:
Assay in all cases: DTP human tumour cell line panel, 48 h
RXF 393 renal = tested on: RXF 393 renal
OVCAR-8 ovarian = tested on: OVCAR-8 ovarian
DU-145 prostate = tested on: DU-145 prostate
PC-3 prostate = tested on: PC-3 prostate
UACC-257 melanoma = tested on: UACC-257 melanoma
TK-10 renal = tested on: TK-10 renal
SK-MEL-5 melanoma = tested on: SK-MEL-5 melanoma
SK-MEL-28 melanoma = tested on: SK-MEL-28 melanoma
UACC-62 melanoma = tested on: UACC-62 melanoma
SNB-19 CNS = tested on: SNB-19 CNS

SMILES	TGI (RXF 393 renal) [µM]	TGI (OVCAR-8 ovarian) [µM]	TGI (DU-145 prostate) [µM]	TGI (PC-3 prostate) [µM]	TGI (UACC-257 melanoma) [µM]	TGI (TK-10 renal) [µM]	TGI (SK-MEL-5 melanoma) [µM]	TGI (SK-MEL-28 melanoma) [µM]	TGI (UACC-62 melanoma) [µM]	TGI (SNB-19 CNS) [µM]
O=C1C2=Nc3ccccc3C(O)(C(=O)O)N2c2ccccc21 (stereo not drawn)	> 100	> 100	29.8	20	24.2	> 100	27.5	> 100	–	–
COc1nc2c(N3CCCC3)nc(N3CCNCC3)nc2nc1NCc1ccccc1	2.73	10.7	12.3	6.42	3.35	5.78	2.88	3.92	3.29	4.19
COc1cc(/C=C2\CCC(C)/C(=C\c3cc(OC)c(OC)c(OC)c3)C2=O)cc(OC)c1OC (stereo not drawn)	6.36	9.52	> 100	11.1	21.3	14	5.7	25.2	6.89	18.4
COc1ccc2c(c1)c(=O)c1c(NCCNCCO)ccc3c(=O)n(CCN(C)C)c(=O)n2c31	0.266	1.16	0.31	0.624	1.06	4.53	0.598	1.34	0.293	0.997
O=C1c2cccc(O)c2C(=O)c2c(O)cc(CO)cc21	> 100	–	–	–	> 100	> 100	30.7	> 100	–	> 100
O=[N+]([O-])/C(Cl)=C(\NCCN/C(C(Cl)=C(Cl)Cl)=C(/Cl)[N+](=O)[O-])C(Cl)=C(Cl)Cl	–	> 100	> 100	> 100	–	> 100	–	> 100	> 100	> 100
C[C@H]1OC(=O)[C@@H]2N=NN(Cc3ccccc3)[C@H]12	> 100	> 100	> 100	> 100	–	> 100	> 100	> 100	> 100	> 100
O=C(NN1C(=O)CSC1c1cccc(F)c1)c1ccncc1 (stereo not drawn)	> 100	> 100	–	–	> 100	> 100	> 100	> 100	> 100	> 100
COC(=O)N1N=C(c2ccccc2)C1c1ccccc1 (stereo not drawn)	> 100	94	> 100	> 100	77.4	> 100	–	> 100	63.3	> 100
CSc1nc2c(ncn2C2OC(CO)C(O)C(O)C2O)c(=O)[nH]1 (stereo not drawn)	> 100	> 100	–	–	> 100	–	> 100	> 100	> 100	> 100
O=C(O)/C=C\C(=O)Nc1ccc(S(=O)(=O)c2ccc(NC(=O)/C=C\C(=O)O)cc2)cc1	–	> 100	–	–	> 100	> 100	> 100	> 100	> 100	> 100
CN(C)CCCNC(=O)c1c(O)c2ccccc2n(C)c1=O	> 100	> 100	> 100	> 100	> 100	> 100	> 100	> 100	> 100	–
CCN(CCCl)c1cc(CN(C)C)cc(NC(=O)c2ccc(C(=O)Nc3cccc(CN(C)C)c3)cc2)c1	0.82	12.8	42.6	0.733	3.67	9.94	–	5.2	4.07	1.34
Cc1c(-c2ccccc2)[nH]n(C2=NCCN2)c1=O	> 100	> 100	–	> 100	> 100	> 100	> 100	–	> 100	> 100
O=C(CC(C(=O)c1ccco1)c1ccco1)c1ccco1 (stereo not drawn)	> 100	> 100	> 100	–	> 100	> 100	> 100	> 100	> 100	–
COc1cc(C(O)c2ccc3c(c2)OCO3)cc(OC)c1OC (stereo not drawn)	–	> 100	> 100	> 100	> 100	> 100	> 100	> 100	> 100	> 100
O=C1OC(c2ccccc2)N(C(=O)c2ccccc2)C1Cc1ccc(OCc2ccccc2)cc1 (stereo not drawn)	–	> 100	> 100	> 100	–	> 100	> 100	> 100	> 100	> 100
CCNc1ncnc2sc(SCc3ccccc3)nc12	> 100	> 100	> 100	> 100	> 100	> 100	> 100	> 100	–	> 100
CON(C)C(=O)C1CCCO1 (stereo not drawn)	–	> 100	> 100	> 100	> 100	> 100	> 100	> 100	> 100	> 100
CN1CCN(C2=C(Cl)C3(OCCS3)C(F)(F)C2(F)F)CC1 (stereo not drawn)	> 100	> 100	> 100	–	> 100	> 100	61.7	–	> 100	> 100
COc1cc([N+](=O)[O-])c(OC)c2c(Nc3ccc(S(=O)(=O)O)c4cc(S(=O)(=O)O)cc(S(=O)(=O)O)c34)cc(C)nc12	> 100	> 100	> 100	> 100	> 100	> 100	> 100	> 100	> 100	–
O=[N+]([O-])c1cccc2c(N=Nc3ccc4ccccc4c3O)c(O)cc(S(=O)(=O)O)c12	> 100	> 100	–	> 100	> 100	> 100	> 100	> 100	> 100	> 100
CC1(C)OC2COC3([C@@H]4OC(C)(C)O[C@@H]4CO)OC(C)(C)OC3C2O1 (stereo partly drawn)	> 100	> 100	> 100	> 100	> 100	–	> 100	> 100	> 100	> 100
CC1(C)N=C2C(=O)c3c([nH]c4ccccc34)[C@]3(C)CCC1CC23 (stereo partly drawn)	> 6.25	> 6.25	> 6.25	> 6.25	> 6.25	> 6.25	> 6.25	> 6.25	–	–
